Measurements reported in patent US9890166B2, “Imidazopyrrolidine derivatives and their use in the treatment of disease” (NOVARTIS AG, priority 2013, dated 2018).

Key:
K-562 cells = assay: Cell growth inhibition assay (CellTiter-Glo), K-562; conditions: for GI50: Homo sapiens, K562, read-out: K-562 GI50; for K-562 TGI: K-562 cells, total growth inhibition, CellTiter-Glo;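 on all read-outs here: cellular ATP measured by luminescence after 4 days of exposure, 3-fold dilution series from 10 µM, DMSO vehicle-treated cells define 100%, cell-free medium wells −100%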
THP-1 cells = assay: Cell growth inhibition assay (CellTiter-Glo), THP-1; conditions: for GI50: Homo sapiens, THP-1, read-out: THP-1 GI50; for THP-1 TGI: THP-1 cells, total growth inhibition, CellTiter-Glo;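 on all read-outs here: viability read as cellular ATP luminescence after 4 days, 3-fold dilution series from 10 µM, DMSO vehicle-treated cells taken as 100%, cell-free medium wells as −100%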
MV-4-11 cells = assay: Cell growth inhibition assay (CellTiter-Glo), MV-4-11; conditions: for GI50: Homo sapiens, MV4-11, read-out: MV-4-11 GI50; for MV-4-11 TGI: MV-4-11 cells, total growth inhibition, CellTiter-Glo;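 on all read-outs here: cellular ATP luminescence after 4 days, 3-fold dilution series from 10 µM top dose, vehicle (0.1% DMSO) set to 100%, cell-free medium set to −100%, day 0 corrected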
BRD3 (His-Brd3(20-477)) = BRD3 (His-Brd3(20-477)) (Homo sapiens (Human), UniProt Q15059); assay: TR-FRET in-vitro binding assay for BRD3; conditions: single determination or n ≧ 2 independent determinations, read-out: Biochemical IC50 BRD3
Chain of BRD3 (His-Brd3(20-477)) (Q15059 20-477): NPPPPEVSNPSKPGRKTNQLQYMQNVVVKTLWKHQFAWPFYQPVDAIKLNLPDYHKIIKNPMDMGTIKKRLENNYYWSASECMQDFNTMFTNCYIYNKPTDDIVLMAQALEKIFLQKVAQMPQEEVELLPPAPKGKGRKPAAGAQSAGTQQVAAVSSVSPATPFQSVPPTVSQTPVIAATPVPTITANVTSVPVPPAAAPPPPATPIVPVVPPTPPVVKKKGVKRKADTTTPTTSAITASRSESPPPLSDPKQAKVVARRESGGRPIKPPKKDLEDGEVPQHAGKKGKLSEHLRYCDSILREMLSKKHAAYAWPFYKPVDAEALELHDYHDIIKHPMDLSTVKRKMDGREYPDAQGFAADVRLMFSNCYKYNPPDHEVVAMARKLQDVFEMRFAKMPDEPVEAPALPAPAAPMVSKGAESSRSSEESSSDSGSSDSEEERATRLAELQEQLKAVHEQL
Outline: (§1)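 In this TR-FRET format, each compound was tested as an 8-point dilution series, single point per concentration, dispensed from 90% DMSO solution. Incubation lasted 35 minutes at 30° C.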

BRD2 (His-Brd2(60-472)) = BRD2 (His-Brd2(60-472)) (Homo sapiens (Human), UniProt P25440); assay: TR-FRET in-vitro binding assay for BRD2; conditions: single determination or n ≧ 2 independent determinations, read-out: Biochemical IC50 BRD2
Chain of BRD2 (His-Brd2(60-472)) (P25440 60-472): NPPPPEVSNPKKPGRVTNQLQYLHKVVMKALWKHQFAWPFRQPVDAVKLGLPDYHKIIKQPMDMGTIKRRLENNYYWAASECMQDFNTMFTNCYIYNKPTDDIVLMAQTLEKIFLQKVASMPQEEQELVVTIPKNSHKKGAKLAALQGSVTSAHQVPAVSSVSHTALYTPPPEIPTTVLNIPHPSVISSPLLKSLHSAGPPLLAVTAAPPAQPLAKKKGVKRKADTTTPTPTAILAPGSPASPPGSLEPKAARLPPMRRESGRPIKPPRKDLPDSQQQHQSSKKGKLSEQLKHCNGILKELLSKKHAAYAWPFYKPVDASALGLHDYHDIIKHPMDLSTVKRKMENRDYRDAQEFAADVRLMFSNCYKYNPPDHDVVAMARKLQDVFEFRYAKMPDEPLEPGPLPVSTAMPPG
Outline: as §1

[1] = molecular target: CREBBP bromodomain (His-CREBBP(1081-1197)) (Homo sapiens (Human), UniProt Q92793); assay: AlphaScreen in-vitro binding assay for CREBBP; conditions: single determination or n ≧ 2 independent determinations, read-out: Biochemical IC50 CREBBP
Chain of CREBBP bromodomain (His-CREBBP(1081-1197)) (Q92793 1081-1197): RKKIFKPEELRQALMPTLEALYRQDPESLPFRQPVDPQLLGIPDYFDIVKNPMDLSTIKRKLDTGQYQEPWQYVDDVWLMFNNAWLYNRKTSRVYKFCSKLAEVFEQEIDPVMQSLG
Outline: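 Detection used nickel-chelate acceptor plus streptavidin donor AlphaScreen beads, 1 h room temperature. Percent inhibition fitted by non-linear regression to IC50.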

BRD4 (His-Brd4(44-477)) = BRD4 (His-Brd4(44-477)) (Homo sapiens (Human), UniProt O60885); assay: TR-FRET in-vitro binding assay for BRD4; conditions: single determination or n ≧ 2 independent determinations, read-out: Biochemical IC50 BRD4
Outline: as §1

SMILES | GI50 (K-562 cells) | GI50 (THP-1 cells) | GI50 (MV-4-11 cells) | IC50 (BRD3 (His-Brd3(20-477))) | IC50 (BRD2 (His-Brd2(60-472))) | IC50 [1] | IC50 (BRD4 (His-Brd4(44-477))) | K-562 TGI (K-562 cells) | THP-1 TGI (THP-1 cells) | MV-4-11 TGI (MV-4-11 cells)
CCCn1c(-c2cc(OC)ncc2F)nc2c1C(=O)N(c1cc(C)c(=O)n(C)c1)C2c1ccc(Cl)cc1 (stereo not drawn) [Example 36, 6-(4-chlorophenyl)-5-(1,5-dimethyl-6-oxo-1,6-dihydropyridin-3-yl)-2-(5-fluoro-2-methoxypyridin-4-yl)-3-propyl-5,6-dihydropyrrolo[3,4-d]imidazol-4(3H)-one] | 250 nM | 115 nM | 59.8 nM | 160 nM | 164 nM | 2500 nM | 150 nM | >10000 nM | 235 nM | 104 nM
Cc1cc(N2C(=O)c3nc(C4=CC(C)(C)NC(C)(C)C4)n(C(C)C)c3C2c2ccc(Cl)cc2)cn2c(CF)nnc12 (stereo not drawn) [Example 90, 6-(4-chlorophenyl)-5-(3-(fluoromethyl)-8-methyl-[1,2,4]triazolo[4,3-a]pyridin-6-yl)-1-isopropyl-2-(2,2,6,6-tetramethyl-1,2,3,6-tetrahydropyridin-4-yl)-5,6-dihydropyrrolo[3,4-d]imidazol-4(1H)-one] | 270 nM | 82.8 nM | 16.2 nM | 37 nM | 67 nM | 13100 nM | 30 nM | >10000 nM | 271 nM | 31.75 nM
Cc1cc(N2C(=O)c3nc(N4CCOCC4)n(C)c3C2c2ccc(Cl)cc2)cn(C)c1=O (stereo not drawn) [Example 130, 6-(4-chlorophenyl)-5-(1,5-dimethyl-6-oxo-1,6-dihydropyridin-3-yl)-1-methyl-2-morpholino-5,6-dihydropyrrolo[3,4-d]imidazol-4(1H)-one] | 1940 nM | 526 nM | 167 nM | 160 nM | 230 nM | 2400 nM | 180 nM | >10000 nM | 1210 nM | 390.5 nM
Cc1cc(N2C(=O)c3nc(C4=CCN(S(C)(=O)=O)CC4)n(C(C)C)c3C2c2ccc(Cl)cc2)cn2c(C)nnc12 (stereo not drawn) [Example 67, 6-(4-chlorophenyl)-5-(3,8-dimethyl-[1,2,4]triazolo[4,3-a]pyridin-6-yl)-1-isopropyl-2-(1-(methylsulfonyl)-1,2,3,6-tetrahydropyridin-4-yl)-5,6-dihydropyrrolo[3,4-d]imidazol-4(1H)-one] | 5400 nM | 1280 nM | 165 nM | 20.5 nM | 38 nM | 5200 nM | 17 nM | >10000 nM | 3275 nM | 332.5 nM
COc1cc(N2C(=O)c3nc(C4=CCCN(C)C4)n(C(C)C)c3C2c2ccc(Cl)cc2)cc2c1nnn2C (stereo not drawn) [Example 62] | 391 nM | 164 nM | 41.9 nM | 86 nM | 150 nM | 31400 nM | 120 nM | >10000 nM | 331.5 nM | 80.25 nM
CC(=O)N1CC=C(c2nc3c(n2C(C)C)C(c2ccc(Cl)cc2)N(c2cc(C)c4nnc(C)n4c2)C3=O)CC1 (stereo not drawn) [Example 66] | 5540 nM | 1760 nM | 232 nM | 66 nM | 86 nM | 3450 nM | 31.5 nM | >10000 nM | 5860 nM | 430 nM
COc1cc(N2C(=O)c3nc(C4=CCOCC4)n(C(C)C)c3C2c2ccc(Cl)cc2)cc2c1nnn2C (stereo not drawn) [Example 60] | 280 nM | 69 nM | 34 nM | 53.5 nM | 96 nM | 21900 nM | 31.5 nM | >10000 nM | 132 nM | 63.1 nM

Molecules with a lower GI50 (K-562 cells), results first:

GI50 (K-562 cells) | GI50 (THP-1 cells) | GI50 (MV-4-11 cells) | IC50 (BRD3 (His-Brd3(20-477))) | IC50 (BRD2 (His-Brd2(60-472))) | IC50 [1] | IC50 (BRD4 (His-Brd4(44-477))) | SMILES | K-562 TGI (K-562 cells) | THP-1 TGI (THP-1 cells) | MV-4-11 TGI (MV-4-11 cells)
37.2 nM | 9.37 nM | 7.97 nM | 11 nM | 26 nM | > 37000 nM | 11 nM | COc1ccc(-c2nc3c(n2C(C)C)C(c2ccc(Cl)cc2)N(c2cc(C)c4nnn(C)c4n2)C3=O)cn1 (stereo not drawn) [Example 138, 6-(4-chlorophenyl)-5-(3,7-dimethyl-3H-[1,2,3]triazolo[4,5-b]pyridin-5-yl)-1-isopropyl-2-(6-methoxypyridin-3-yl)-5,6-dihydropyrrolo[3,4-d]imidazol-4(1H)-one] | >10000 nM | 23.6 nM | 13 nM
13.4 nM | 2.95 nM | 1.38 nM | 17 nM | 20 nM | 17400 nM | 15 nM | Cc1cc(N2C(=O)c3nc(C4CCOCC4)n(C(C)C)c3[C@H]2c2ccc(Cl)cc2)nn2c(C)nnc12 [Example 102, (R)-6-(4-chlorophenyl)-5-(3,8-dimethyl-[1,2,4]triazolo[4,3-b]pyridazin-6-yl)-1-isopropyl-2-(tetrahydro-2H-pyran-4-yl)-5,6-dihydropyrrolo[3,4-d]imidazol-4(1H)-one] | >10000 nM | 10.51 nM | 4.435 nM
166 nM | 27.6 nM | 8.54 nM | 14 nM | 25 nM | 1800 nM | 14 nM | Cc1cc(N2C(=O)c3nc(C4CCOCC4)n(C(C)C)c3[C@H]2c2ccc(Cl)cc2)cn2c(C)nnc12 [Example 87, (R)-6-(4-chlorophenyl)-5-(3,8-dimethyl-[1,2,4]triazolo[4,3-a]pyridin-6-yl)-1-isopropyl-2-(tetrahydro-2H-pyran-4-yl)-5,6-dihydropyrrolo[3,4-d]imidazol-4(1H)-one] | >10000 nM | 79.2 nM | 14.45 nM
75.3 nM | 17.3 nM | 9.63 nM | 39 nM | 94 nM | > 37000 nM | 38 nM | Cc1cc(N2C(=O)c3nc(C)n(C(C)C)c3C2c2ccc(Cl)cc2)nn2c(C(F)F)nnc12 (stereo not drawn) [Example 150, 6-(4-chlorophenyl)-5-(3-(difluoromethyl)-8-methyl-[1,2,4]triazolo[4,3-b]pyridazin-6-yl)-1-isopropyl-2-methyl-5,6-dihydropyrrolo[3,4-d]imidazol-4(1H)-one] | >10000 nM | 46.4 nM | 24.2 nM
52 nM | 11.9 nM | 6.29 nM | 19 nM | 38 nM | 4350 nM | 22 nM | Cc1cc(N2C(=O)c3nc(C)n(C(C)C)c3[C@H]2c2ccc(Cl)cc2)cc2c1nnn2C [Example 109, (R)-6-(4-chlorophenyl)-5-(3,7-dimethyl-3H-benzo[d][1,2,3]triazol-5-yl)-1-isopropyl-2-methyl-5,6-dihydropyrrolo[3,4-d]imidazol-4(1H)-one] | >10000 nM | 35.8 nM | 15.35 nM
41.8 nM | 11.2 nM | 4.84 nM | 23 nM | 28 nM | 1450 nM | 23 nM | Cc1cc(N2C(=O)c3nc(C4CC4)n(C(C)C)c3[C@H]2c2ccc(Cl)cc2)cn2c(C)nnc12 [Example 107, (R)-6-(4-chlorophenyl)-2-cyclopropyl-5-(3,8-dimethyl-[1,2,4]triazolo[4,3-a]pyridin-6-yl)-1-isopropyl-5,6-dihydropyrrolo[3,4-d]imidazol-4(1H)-one] | >10000 nM | 23.75 nM | 9.71 nM
92.5 nM | 50.1 nM | 19.3 nM | 41.5 nM | 90 nM | 7200 nM | 40.5 nM | Cc1cc(N2C(=O)c3ncn(C(C)C)c3C2c2ccc(Cl)cc2)cc2c1nnn2C (stereo not drawn) [Example 106, 6-(4-chlorophenyl)-5-(1,4-dimethyl-1H-benzo[d][1,2,3]triazol-6-yl)-1-isopropyl-5,6-dihydropyrrolo[3,4-d]imidazol-4(1H)-one] | >10000 nM | 86.8 nM | 34.7 nM
219 nM | 64.9 nM | 36.6 nM | 76.5 nM | 98.2 nM | 1670 nM | 65.2 nM | COc1ncc(-c2nc3c(n2C(C)C)C(c2ccc(Cl)cc2)N(c2cc(C)c4onc(C)c4c2)C3=O)c(OC)n1 (stereo not drawn) [Example 34, 6-(4-chlorophenyl)-2-(2,4-dimethoxypyrimidin-5-yl)-5-(3,7-dimethylbenzo[d]-isoxazol-5-yl)-1-isopropyl-5,6-dihydropyrrolo[3,4-d]imidazol-4(1H)-one] | >10000 nM | 109 nM | 76.6 nM
